From the supplement of paper PMC10307832

Assays:
Experiment in all cases: relative viability (nuclei count vs DMSO), 5 days (fraction); higher = more cells survive
[1] = tested on: NCI-H1993
Method in brief: (§1)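 Medians of duplicate plates are given as relative viability. That measure is the nuclei count in treated wells divided by the count in vehicle wells. Counts were taken on 4× images of lung cancer cell lines in 1536-well plates, 5 days after pin-tool dosing the day after seeding with one drug alone or a fixed anchor-drug dose plus five library-drug doses (not always all listed) in √10 steps.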

[2] = tested on: NCI-H2126
Method in brief: as §1

[3] = tested on: NCI-H2009
Method in brief: as §1

[4] = tested on: PC-14
Method in brief: as §1

[5] = tested on: SK-MES-1
Method in brief: as §1

[6] = tested on: LU99A
Method in brief: as §1

[7] = tested on: HCC-366
Method in brief: as §1

[8] = tested on: HOP-62
Method in brief: as §1

[9] = tested on: LXF-289
Method in brief: as §1

[10] = tested on: LC-2-ad
Method in brief: as §1

[11] = tested on: HCC-827
Method in brief: as §1

[12] = tested on: NCI-H522
Method in brief: as §1

[13] = tested on: HCC-15
Method in brief: as §1

[14] = tested on: PC-3 [JPC-3]
Method in brief: as §1

[15] = tested on: COR-L23
Method in brief: as §1

[16] = tested on: NCI-H2087
Method in brief: as §1

[17] = tested on: CAL-12T
Method in brief: as §1

[18] = tested on: HARA
Method in brief: as §1

[19] = tested on: NCI-H2170
Method in brief: as §1

[20] = tested on: LCLC-97TM1
Method in brief: as §1

[21] = tested on: HCC-44
Method in brief: as §1

[22] = tested on: COR-L 105
Method in brief: as §1

Q: `COCC1(CO)C(=O)C2CCN1CC2` (configuration not stated) [PRIMA-1MET] + O=C(CCCCCCC(=O)Nc1ccccc1)NO [Vorinostat] (partner 1 µM) was tested. Which relative viability ([1]; first compound 0.2 µM) did it give?
A: 0.743

Q: And the relative viability ([1]; first compound 2 µM)?
A: 0.629

Q: What about the relative viability ([1]; first compound 6.325 µM) of the same molecule?
A: 0.651

Q: What about the relative viability ([1]; first compound 20 µM) of the same molecule?
A: 0.619

Q: What about the relative viability ([2]; first compound 0.2 µM) of the same molecule?
A: 0.784

Q: What about the relative viability ([2]; first compound 0.6325 µM) of the same molecule?
A: 0.796

Q: What about the relative viability ([2]; first compound 2 µM) of the same molecule?
A: 0.606

Q: What about the relative viability ([2]; first compound 6.325 µM) of the same molecule?
A: 0.765

Q: And the relative viability ([2]; first compound 20 µM)?
A: 0.788

Q: And the relative viability ([3]; first compound 0.2 µM)?
A: 0.752

Q: What about the relative viability ([3]; first compound 0.6325 µM) of the same molecule?
A: 0.801

Q: And the relative viability ([3]; first compound 2 µM)?
A: 0.668

Q: What about the relative viability ([3]; first compound 6.325 µM) of the same molecule?
A: 0.5

Q: And the relative viability ([3]; first compound 20 µM)?
A: 0.381

Q: And the relative viability ([4]; first compound 0.2 µM)?
A: 0.722

Q: What about the relative viability ([4]; first compound 0.6325 µM) of the same molecule?
A: 0.755

Q: And the relative viability ([4]; first compound 2 µM)?
A: 0.728

Q: And the relative viability ([4]; first compound 6.325 µM)?
A: 0.777

Q: What about the relative viability ([4]; first compound 20 µM) of the same molecule?
A: 0.019

Q: And the relative viability ([5]; first compound 0.2 µM)?
A: 1.26

Q: And the relative viability ([5]; first compound 0.6325 µM)?
A: 1.08

Q: What about the relative viability ([5]; first compound 2 µM) of the same molecule?
A: 1.05

Q: What about the relative viability ([5]; first compound 6.325 µM) of the same molecule?
A: 1.24

Q: And the relative viability ([5]; first compound 20 µM)?
A: 1.18

Q: And the relative viability ([6]; first compound 0.2 µM)?
A: 0.628

Q: What about the relative viability ([6]; first compound 0.6325 µM) of the same molecule?
A: 0.342

Q: What about the relative viability ([6]; first compound 2 µM) of the same molecule?
A: 0.54

Q: And the relative viability ([6]; first compound 6.325 µM)?
A: 0.436

Q: What about the relative viability ([6]; first compound 20 µM) of the same molecule?
A: 0.113

Q: And the relative viability ([7]; first compound 0.2 µM)?
A: 0.596

Q: And the relative viability ([7]; first compound 0.6325 µM)?
A: 0.252

Q: And the relative viability ([7]; first compound 2 µM)?
A: 0.249

Q: And the relative viability ([7]; first compound 6.325 µM)?
A: 0.336

Q: And the relative viability ([7]; first compound 20 µM)?
A: 0.0291

Q: And the relative viability ([8]; first compound 0.2 µM)?
A: 0.59

Q: And the relative viability ([8]; first compound 0.6325 µM)?
A: 0.445

Q: What about the relative viability ([8]; first compound 2 µM) of the same molecule?
A: 0.488

Q: And the relative viability ([8]; first compound 6.325 µM)?
A: 0.623

Q: What about the relative viability ([8]; first compound 20 µM) of the same molecule?
A: 0.245

Q: And the relative viability ([9]; first compound 0.2 µM)?
A: 0.864

Q: And the relative viability ([9]; first compound 0.6325 µM)?
A: 0.628

Q: What about the relative viability ([9]; first compound 2 µM) of the same molecule?
A: 0.79

Q: What about the relative viability ([9]; first compound 6.325 µM) of the same molecule?
A: 0.796

Q: And the relative viability ([9]; first compound 20 µM)?
A: 0.745

Q: What about the relative viability ([10]; first compound 0.2 µM) of the same molecule?
A: 0.798

Q: What about the relative viability ([10]; first compound 0.6325 µM) of the same molecule?
A: 0.578

Q: And the relative viability ([10]; first compound 2 µM)?
A: 0.679

Q: And the relative viability ([10]; first compound 6.325 µM)?
A: 0.733

Q: And the relative viability ([10]; first compound 20 µM)?
A: 0.645

Q: What about the relative viability ([11]; first compound 0.2 µM) of the same molecule?
A: 0.939

Q: And the relative viability ([11]; first compound 0.6325 µM)?
A: 0.173

Q: And the relative viability ([11]; first compound 2 µM)?
A: 0.661

Q: What about the relative viability ([11]; first compound 6.325 µM) of the same molecule?
A: 0.816

Q: What about the relative viability ([11]; first compound 20 µM) of the same molecule?
A: 0.855

Q: And the relative viability ([12]; first compound 0.2 µM)?
A: 0.724

Q: What about the relative viability ([12]; first compound 0.6325 µM) of the same molecule?
A: 0.923

Q: And the relative viability ([12]; first compound 2 µM)?
A: 0.733

Q: What about the relative viability ([12]; first compound 6.325 µM) of the same molecule?
A: 0.83

Q: And the relative viability ([12]; first compound 20 µM)?
A: 0.213

Q: What about the relative viability ([13]; first compound 0.2 µM) of the same molecule?
A: 0.962

Q: What about the relative viability ([13]; first compound 0.6325 µM) of the same molecule?
A: 0.798

Q: What about the relative viability ([13]; first compound 2 µM) of the same molecule?
A: 0.887

Q: What about the relative viability ([13]; first compound 6.325 µM) of the same molecule?
A: 0.871

Q: And the relative viability ([13]; first compound 20 µM)?
A: 0.758

Q: And the relative viability ([14]; first compound 0.2 µM)?
A: 0.964

Q: And the relative viability ([14]; first compound 0.6325 µM)?
A: 0.579

Q: And the relative viability ([14]; first compound 2 µM)?
A: 0.76

Q: What about the relative viability ([14]; first compound 6.325 µM) of the same molecule?
A: 1.03

Q: What about the relative viability ([14]; first compound 20 µM) of the same molecule?
A: 0.747

Q: And the relative viability ([15]; first compound 0.2 µM)?
A: 0.487

Q: What about the relative viability ([15]; first compound 0.6325 µM) of the same molecule?
A: 0.432

Q: And the relative viability ([15]; first compound 2 µM)?
A: 0.454

Q: What about the relative viability ([15]; first compound 6.325 µM) of the same molecule?
A: 0.344

Q: And the relative viability ([15]; first compound 20 µM)?
A: 0.0281

Q: And the relative viability ([16]; first compound 0.6325 µM)?
A: 0.479

Q: And the relative viability ([16]; first compound 2 µM)?
A: 0.604

Q: And the relative viability ([16]; first compound 6.325 µM)?
A: 0.477

Q: And the relative viability ([16]; first compound 20 µM)?
A: 0.336

Q: What about the relative viability ([17]; first compound 0.2 µM) of the same molecule?
A: 0.78

Q: And the relative viability ([17]; first compound 0.6325 µM)?
A: 0.694

Q: What about the relative viability ([17]; first compound 2 µM) of the same molecule?
A: 0.637

Q: What about the relative viability ([17]; first compound 6.325 µM) of the same molecule?
A: 0.589

Q: And the relative viability ([17]; first compound 20 µM)?
A: 0.0657

Q: And the relative viability ([18]; first compound 0.2 µM)?
A: 0.544

Q: What about the relative viability ([18]; first compound 0.6325 µM) of the same molecule?
A: 0.266

Q: What about the relative viability ([18]; first compound 6.325 µM) of the same molecule?
A: 0.587

Q: And the relative viability ([18]; first compound 20 µM)?
A: 0.499

Q: And the relative viability ([19]; first compound 0.2 µM)?
A: 1.05

Q: What about the relative viability ([19]; first compound 0.6325 µM) of the same molecule?
A: 0.801

Q: And the relative viability ([19]; first compound 2 µM)?
A: 0.721

Q: And the relative viability ([19]; first compound 6.325 µM)?
A: 0.795

Q: And the relative viability ([19]; first compound 20 µM)?
A: 0.774

Q: And the relative viability ([20]; first compound 0.2 µM)?
A: 0.547

Q: What about the relative viability ([20]; first compound 0.6325 µM) of the same molecule?
A: 0.675

Q: What about the relative viability ([20]; first compound 2 µM) of the same molecule?
A: 0.747

Q: And the relative viability ([20]; first compound 6.325 µM)?
A: 0.791

Q: And the relative viability ([20]; first compound 20 µM)?
A: 0.464

Q: And the relative viability ([21]; first compound 0.2 µM)?
A: 1.08

Q: What about the relative viability ([21]; first compound 0.6325 µM) of the same molecule?
A: 1.03

Q: What about the relative viability ([21]; first compound 2 µM) of the same molecule?
A: 1.18

Q: And the relative viability ([21]; first compound 6.325 µM)?
A: 1.18

Q: What about the relative viability ([21]; first compound 20 µM) of the same molecule?
A: 1.06

Q: What about the relative viability ([22]; first compound 0.2 µM) of the same molecule?
A: 1.13

Q: What about the relative viability ([22]; first compound 0.6325 µM) of the same molecule?
A: 0.859

Q: And the relative viability ([22]; first compound 2 µM)?
A: 0.769

Q: And the relative viability ([22]; first compound 6.325 µM)?
A: 0.771

Q: What about the relative viability ([22]; first compound 20 µM) of the same molecule?
A: 0.196
